Laboratory results: PubChem BioAssay (NCI)
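Where inhibition never reached the appropriate level, the endpoint shown equals the highest concentration tested. Otherwise, values were interpolated linearly from a five-concentration, 48-hour dose response in 96-well plates. Here, GI50 denotes the concentration required for 50% inhibition of growth. TGI denotes the concentration required for complete inhibition of growth.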

How the values were obtained:
Assay in all cases: NCI tumour cell line growth inhibition, 48 h
U251 CNS = system: U251 CNS
HS 578T breast = system: HS 578T breast
SF-539 CNS = system: SF-539 CNS
ACHN renal = system: ACHN renal
NCI-H522 lung = system: NCI-H522 lung
UACC-257 melanoma = system: UACC-257 melanoma
SK-MEL-2 melanoma = system: SK-MEL-2 melanoma
HCC-2998 colon = system: HCC-2998 colon
IGROV1 ovarian = system: IGROV1 ovarian
LOX IMVI melanoma = system: LOX IMVI melanoma
CAKI-1 renal = system: CAKI-1 renal
SK-MEL-28 melanoma = system: SK-MEL-28 melanoma
UO-31 renal = system: UO-31 renal
HOP-92 NSCLC = system: HOP-92 NSCLC
HOP-62 NSCLC = system: HOP-62 NSCLC
MOLT-4 leukemia = system: MOLT-4 leukemia
786-0 renal = system: 786-0 renal
BT-549 breast = system: BT-549 breast
SN12C renal = system: SN12C renal
OVCAR-4 ovarian = system: OVCAR-4 ovarian
MDA-MB-435 = system: MDA-MB-435
NCI-H226 lung = system: NCI-H226 lung
SF-295 CNS = system: SF-295 CNS
HT29 colon = system: HT29 colon
HCT-15 colon = system: HCT-15 colon
COLO 205 colon = system: COLO 205 colon
HCT-116 colon = system: HCT-116 colon
SNB-75 CNS = system: SNB-75 CNS
NCI-H460 lung = system: NCI-H460 lung
OVCAR-3 ovarian = system: OVCAR-3 ovarian
MCF7 breast = system: MCF7 breast
M14 melanoma = system: M14 melanoma
PC-3 prostate = system: PC-3 prostate
A498 renal = system: A498 renal
MALME-3M melanoma = system: MALME-3M melanoma
SK-OV-3 ovarian = system: SK-OV-3 ovarian
RXF 393 renal = system: RXF 393 renal
SNB-19 CNS = system: SNB-19 CNS
CCRF-CEM leukemia = system: CCRF-CEM leukemia
DU-145 prostate = system: DU-145 prostate
SW-620 colon = system: SW-620 colon
K-562 leukemia = system: K-562 leukemia
HL-60(TB) leukemia = system: HL-60(TB) leukemia
UACC-62 melanoma = system: UACC-62 melanoma
OVCAR-8 ovarian = system: OVCAR-8 ovarian
TK-10 renal = system: TK-10 renal
NCI/ADR-RES ovarian = system: NCI/ADR-RES ovarian
MDA-MB-231 breast = system: MDA-MB-231 breast
KM12 colon = system: KM12 colon
NCI-H23 lung = system: NCI-H23 lung
SF-268 CNS = system: SF-268 CNS
OVCAR-5 ovarian = system: OVCAR-5 ovarian
EKVX NSCLC = system: EKVX NSCLC
T-47D breast = system: T-47D breast
SR leukemia = system: SR leukemia
SK-MEL-5 melanoma = system: SK-MEL-5 melanoma
A549 NSCLC = system: A549 NSCLC

Compound `CCCNNC(=O)c1ccc(-c2ccc(NC(=O)CCCCCCC(=O)N[C@H](C(=O)N3C[C@H](O)C[C@H]3C(=O)N[C@@H](C)c3ccc(-c4scnc4C)cc3)C(C)(C)C)cc2)cc1` has a GI50 (U251 CNS) of 1.03 µM, a TGI (U251 CNS) of 8.46 µM and a GI50 (HS 578T breast) of 1.91 µM. For the same compound, the TGI (HS 578T breast) was > 100 µM, the GI50 (SF-539 CNS) was 2.05 µM and the TGI (SF-539 CNS) was > 100 µM. For the same compound, the GI50 (ACHN renal) was > 100 µM, the TGI (ACHN renal) was > 100 µM and the GI50 (NCI-H522 lung) was 1.12 µM. The TGI (NCI-H522 lung) was > 100 µM, the GI50 (UACC-257 melanoma) was 0.845 µM and the TGI (UACC-257 melanoma) was > 100 µM. The GI50 (SK-MEL-2 melanoma) was 2.7 µM, the TGI (SK-MEL-2 melanoma) was > 100 µM and the GI50 (HCC-2998 colon) was 2.05 µM. For the same compound, the TGI (HCC-2998 colon) was 11.1 µM, the GI50 (IGROV1 ovarian) was 0.442 µM and the TGI (IGROV1 ovarian) was > 100 µM. For the same compound, the GI50 (LOX IMVI melanoma) was 0.0387 µM, the TGI (LOX IMVI melanoma) was 1.08 µM and the GI50 (CAKI-1 renal) was 7.41 µM. For the same compound, the TGI (CAKI-1 renal) was > 100 µM, the GI50 (SK-MEL-28 melanoma) was 0.599 µM and the TGI (SK-MEL-28 melanoma) was > 100 µM. The GI50 (UO-31 renal) was > 100 µM, the TGI (UO-31 renal) was > 100 µM and the GI50 (HOP-92 NSCLC) was 0.258 µM. For the same compound, the TGI (HOP-92 NSCLC) was 2.14 µM, the GI50 (HOP-62 NSCLC) was 2.46 µM and the TGI (HOP-62 NSCLC) was > 100 µM. The GI50 (MOLT-4 leukemia) was 0.41 µM, the TGI (MOLT-4 leukemia) was > 100 µM and the GI50 (786-0 renal) was 5.02 µM. The TGI (786-0 renal) was > 100 µM, the GI50 (BT-549 breast) was 5.29 µM and the TGI (BT-549 breast) was > 100 µM. For the same compound, the GI50 (SN12C renal) was 4.21 µM, the TGI (SN12C renal) was > 100 µM and the GI50 (OVCAR-4 ovarian) was > 100 µM. The TGI (OVCAR-4 ovarian) was > 100 µM, the GI50 (MDA-MB-435) was 0.848 µM and the TGI (MDA-MB-435) was > 39.3 µM. The GI50 (NCI-H226 lung) was 9.28 µM, the TGI (NCI-H226 lung) was > 100 µM and the GI50 (SF-295 CNS) was 5.97 µM. The TGI (SF-295 CNS) was > 100 µM, the GI50 (HT29 colon) was 0.893 µM and the TGI (HT29 colon) was > 100 µM. For the same compound, the GI50 (HCT-15 colon) was > 100 µM, the TGI (HCT-15 colon) was > 100 µM and the GI50 (COLO 205 colon) was 0.785 µM. The TGI (COLO 205 colon) was 3.25 µM, the GI50 (HCT-116 colon) was 0.41 µM and the TGI (HCT-116 colon) was 5.28 µM. The GI50 (SNB-75 CNS) was 1.8 µM, the TGI (SNB-75 CNS) was > 100 µM and the GI50 (NCI-H460 lung) was 2.63 µM. The TGI (NCI-H460 lung) was > 100 µM, the GI50 (OVCAR-3 ovarian) was 0.917 µM and the TGI (OVCAR-3 ovarian) was 12.7 µM. The GI50 (MCF7 breast) was 0.407 µM, the TGI (MCF7 breast) was > 100 µM and the GI50 (M14 melanoma) was 2.86 µM. The TGI (M14 melanoma) was > 100 µM, the GI50 (PC-3 prostate) was 1.25 µM and the TGI (PC-3 prostate) was > 100 µM. It also gave a GI50 (A498 renal) of 1.41 µM, a TGI (A498 renal) of 4.36 µM and a GI50 (MALME-3M melanoma) of 0.457 µM. For the same compound, the TGI (MALME-3M melanoma) was > 20.3 µM, the GI50 (SK-OV-3 ovarian) was 5.66 µM and the TGI (SK-OV-3 ovarian) was > 100 µM. For the same compound, the GI50 (RXF 393 renal) was 0.465 µM, the TGI (RXF 393 renal) was 2.37 µM and the GI50 (SNB-19 CNS) was 2.62 µM. The TGI (SNB-19 CNS) was > 47.6 µM, the GI50 (CCRF-CEM leukemia) was 0.357 µM and the TGI (CCRF-CEM leukemia) was > 100 µM. For the same compound, the GI50 (DU-145 prostate) was 2.01 µM, the TGI (DU-145 prostate) was > 100 µM and the GI50 (SW-620 colon) was 1.28 µM. For the same compound, the TGI (SW-620 colon) was 9.26 µM, the GI50 (K-562 leukemia) was 0.524 µM and the TGI (K-562 leukemia) was > 100 µM. For the same compound, the GI50 (HL-60(TB) leukemia) was 0.394 µM, the TGI (HL-60(TB) leukemia) was > 100 µM and the GI50 (UACC-62 melanoma) was 1.44 µM. For the same compound, the TGI (UACC-62 melanoma) was 6.94 µM, the GI50 (OVCAR-8 ovarian) was 2.98 µM and the TGI (OVCAR-8 ovarian) was > 100 µM. For the same compound, the GI50 (TK-10 renal) was 1.8 µM, the TGI (TK-10 renal) was > 100 µM and the GI50 (NCI/ADR-RES ovarian) was > 100 µM. For the same compound, the TGI (NCI/ADR-RES ovarian) was > 100 µM, the GI50 (MDA-MB-231 breast) was 1.37 µM and the TGI (MDA-MB-231 breast) was > 65.1 µM. The GI50 (KM12 colon) was 3.34 µM, the TGI (KM12 colon) was > 100 µM and the GI50 (NCI-H23 lung) was 2.22 µM. The TGI (NCI-H23 lung) was > 100 µM, the GI50 (SF-268 CNS) was 3.63 µM and the TGI (SF-268 CNS) was > 100 µM. The GI50 (OVCAR-5 ovarian) was 1.88 µM, the TGI (OVCAR-5 ovarian) was > 100 µM and the GI50 (EKVX NSCLC) was > 36.6 µM. The TGI (EKVX NSCLC) was > 100 µM, the GI50 (T-47D breast) was 0.345 µM and the TGI (T-47D breast) was > 100 µM. For the same compound, the GI50 (SR leukemia) was 0.386 µM, the TGI (SR leukemia) was > 100 µM and the GI50 (SK-MEL-5 melanoma) was 2.08 µM. For the same compound, the TGI (SK-MEL-5 melanoma) was 8.47 µM, the GI50 (A549 NSCLC) was > 95.1 µM and the TGI (A549 NSCLC) was > 100 µM.
